Test results reported in US20060013796A1, “Hair and/or scalp treatment composition” (priority 2002, published 2006).

How the values were obtained:
[1] = test system: Malassezia furfur CBS 7019; assay: MIC of oils and their components, microtitre plate assay; type: cell-based; conditions: substance alone
Description: (§1) Studies into anti-microbial action were performed using a microtitre plate cross-assay in triplicate against the type strain Malassezia furfur CBS 7019. The Fractional Inhibitory Concentration (FIC), the concentration of biocide in a mixture of biocides that inhibits growth, was determined for natural oils and a number of terpenoid components with the conventional anti-dandruff/anti-fungal agents.

[2] = test system: Malassezia furfur CBS 7019; assay: Microtitre plate cross-assay, Fractional Inhibitory Concentration (FIC) with conventional anti-dandruff/anti-fungal agents; type: cell-based; conditions: M. furfur CBS 7019; for FIC interpretation with Octopirox / FIC values with Octopirox: combination with Octopirox; for FIC values with Octopirox / FIC values with climbazole / FIC values with zinc pyrithione (ZnPTO): triplicate; for FIC interpretation with climbazole / FIC values with climbazole: combination with climbazole; for FIC interpretation with zinc pyrithione (ZnPTO) / FIC values with zinc pyrithione (ZnPTO): combination with zinc pyrithione (ZnPTO)
Description: FIC values are for activity against M.furfur, such as CBS 7019, and are calculated in ways well-known in the art.
as §1
The definition of synergy is a combination of biocides in which the effect is greater than the sum of the expected effects of the individual components.

SMILES | MIC values for oils and their components [1] | FIC interpretation with Octopirox [2] | FIC values with Octopirox [2] | FIC interpretation with climbazole [2] | FIC values with climbazole [2] | FIC interpretation with zinc pyrithione (ZnPTO) [2] | FIC values with zinc pyrithione (ZnPTO) [2]
C=CCc1ccc(OC)cc1 [4-allylanisole] | 0.25% | antagonistic (>1 antagonistic) | 2 | antagonistic (>1 antagonistic) | 2 | synergy (<1 synergy) | 0.725
C=C1C2CCC(C2)C1(C)C (centres unmarked) [Camphene] | >8% |  |  |  |  |  | 
CC12CCC(CC1)C(C)(C)O2 [Cineole] | 1% |  |  |  |  |  | 
C=CCc1ccc(O)c(OC)c1 [Eugenol, eugenol] | 0.01% | synergy (<1 synergy) | 0.567 | synergy (<1 synergy) | 0.56 | synergy (<1 synergy) | 0.625
C=C(C)[C@H]1CC=C(C)CC1 [Limonene] | >8% | antagonistic (>1 antagonistic) | 2 | antagonistic (>1 antagonistic) | 2 | antagonistic (>1 antagonistic) | 1.5
C=CC(C)(O)CCC=C(C)C (centres unmarked) [Linalool, linalool] | 0.01% | antagonistic (>1 antagonistic) | 2 |  | 0.417 | synergy (<1 synergy) | 0.625
CC1=CCC(O)(C(C)C)CC1 (centres unmarked) [terpinen-4-ol] |  | antagonistic (>1 antagonistic) | 2 |  | 0.37 | synergy (<1 synergy) | 0.83
CC1=CCC2CC1C2(C)C (stereo not drawn) [α-pinene] | 0.3% | antagonistic (>1 antagonistic) | 2 | antagonistic (>1 antagonistic) | 2 | antagonistic (>1 antagonistic) | 1.42
CC1=CCC(C(C)(C)O)CC1 (stereo not drawn) [α-terpineol, alpha-terpineol] | 0.02% |  | 2 | synergy (<1 synergy) | 0.625 | antagonistic (>1 antagonistic) | 2
